# What was measured:
# [1] = Evaluation of liquid crystallinity of compound (hot stage, polarization microscope); type: physicochemical; set-up: key: A case of having liquid crystallinity was evaluated as A; a case of having no liquid crystallinity was evaluated as B; details: compound alone, heated on hot stage
# Protocol: Each compound was heated on a hot stage and observed with a polarization microscope, and the phase transition temperature was measured to evaluate the presence or absence of liquid crystallinity. A case of having liquid crystallinity was evaluated as A, and a case of having no liquid crystallinity was evaluated as B. The results are shown in the column of “Liquid crystallinity” of “Compound 2” in Table 1.
# [2] = Evaluation of solubility in cyclopentanone (precipitation concentration); type: physicochemical; details: precipitation concentration in cyclopentanone at room temperature (25° C.)
Compound 2 Liquid crystallinity [1],Structure (SMILES),Compound 2 Solubility [2]
A,C=CC(=O)OCCSc1ccc(C#Cc2ccc(OCc3ccc(C#Cc4ccc(COc5ccc(C#Cc6ccc(SCCOC(=O)C=C)cc6)cc5C)cc4)cc3)c(C)c2)cc1 [Compound B-3],B (the solubility in a case where the precipitation concentration was 5% by mass or less was evaluated as B)
A,CC(=O)OCCc1ccc(C#Cc2ccc(OCc3ccc(C#Cc4ccc(COc5ccc(C#Cc6ccc(CCOC(C)=O)cc6)cc5C)cc4)cc3)c(C)c2)cc1 [Compound B-1],B (the solubility in a case where the precipitation concentration was 5% by mass or less was evaluated as B)
A,C=CC(=O)OCCSc1ccc(C#Cc2ccc(OCc3ccc(C#Cc4ccc(COc5ccc(C#Cc6ccc(SCCOC(=O)C=C)cc6)cc5C(=O)OC)cc4)cc3)c(C(=O)OC)c2)cc1 [Compound B-4],A (the solubility in a case where the precipitation concentration was more than 5% by mass was evaluated as A)
A,C=CC(=O)OCCc1ccc(C#Cc2ccc(OCc3ccc(C#Cc4ccc(COc5ccc(C#Cc6ccc(CCOC(=O)C=C)cc6)cc5C)cc4)cc3)c(C)c2)cc1 [Compound B-2],B (the solubility in a case where the precipitation concentration was 5% by mass or less was evaluated as B)

# Source: US12577469B2, “Compound, composition, cured product, optically anisotropic body, optical element, and light guide element” (FUJIFILM Corporation, priority 2021, dated 2026)
